Tests used:
[1] = tested on: U2OS; assay: cell viability relative to DMSO; higher = less toxic; details: 72 h
[2] = tested on: HepG2; assay: as above; details: 72 h
[3] = tested on: Calu-3; assay: as above; details: 72 h
[4] = tested on: Caco-2; assay: as above; details: 72 h
[5] = tested on: Vero E6; assay: as above; details: 72 h
[6] = tested on: U2OS; assay: relative viability EC50 (midpoint between 100% and the lowest measured viability); higher = less toxic; details: 72 h
[7] = tested on: HepG2; assay: as above; details: 72 h
[8] = tested on: Calu-3; assay: as above; details: 72 h
[9] = tested on: Caco-2; assay: as above; details: 72 h
[10] = tested on: Vero E6; assay: as above; details: 72 h
[11] = tested on: A549-ACE2 infected with SARS-CoV-2; assay: morphology score (similarity to uninfected cells); higher = more like uninfected cells; details: 24 h
[12] = tested on: A549-ACE2; assay: drug-induced phospholipidosis relative to tamoxifen; higher = more phospholipidosis
[13] = tested on: A549-ACE2 infected with SARS-CoV-2; assay: SARS-CoV-2 infection rate relative to DMSO; higher = more infection; details: 24 h
[14] = tested on: U2OS; assay: drug sensitivity score (DSS) for viability; higher = more toxic; extreme values may be limits of the assay; details: 72 h
[15] = tested on: HepG2; assay: as above; details: 72 h
[16] = tested on: Calu-3; assay: as above; details: 72 h
[17] = tested on: Caco-2; assay: as above; details: 72 h
[18] = tested on: Vero E6; assay: as above; details: 72 h
[19] = tested on: A549-ACE2; assay: phospholipidosis EC50; higher = less potent phospholipidosis inducer
[20] = tested on: A549-ACE2 infected with SARS-CoV-2; assay: cell count relative to DMSO; higher = less toxic; details: 24 h

CC/C(=C(/c1ccc(OCCN(C)C)cc1)c1cccc(O)c1)c1ccccc1 [droloxifene]
Details	SARS-CoV-2 infection rate [%]	cell count [%]	cell viability [%]	morphology score	phospholipidosis EC50 [µM]
[1], 1 nM	–	–	97.7	–	–
[1], 10 nM	–	–	91.5	–	–
[1], 100 nM	–	–	102	–	–
[1], 1000 nM	–	–	96	–	–
[1], 10000 nM	–	–	75.5	–	–
[2], 1 nM	–	–	87.1	–	–
[2], 10 nM	–	–	101	–	–
[2], 100 nM	–	–	96.9	–	–
[2], 1000 nM	–	–	109	–	–
[2], 10000 nM	–	–	48.8	–	–
[3], 1 nM	–	–	100	–	–
[3], 10 nM	–	–	96.2	–	–
[3], 100 nM	–	–	98.7	–	–
[3], 1000 nM	–	–	87.1	–	–
[3], 10000 nM	–	–	11	–	–
[4], 1 nM	–	–	100	–	–
[4], 10 nM	–	–	97.1	–	–
[4], 100 nM	–	–	92.5	–	–
[4], 1000 nM	–	–	97.4	–	–
[4], 10000 nM	–	–	43.8	–	–
[5], 1 nM	–	–	95.8	–	–
[5], 10 nM	–	–	99.1	–	–
[5], 100 nM	–	–	93.7	–	–
[5], 1000 nM	–	–	95.8	–	–
[5], 10000 nM	–	–	92.6	–	–
[11], 0.3 µM	–	–	–	0.24	–
[11], 3 µM	–	–	–	0.61	–
[11], 10 µM	–	–	–	0.81	–
[11], 30 µM	–	–	–	0.15	–
[13], 0.3 µM	93	–	–	–	–
[13], 3 µM	64	–	–	–	–
[13], 10 µM	13	–	–	–	–
[13], 30 µM	39	–	–	–	–
[19], 24 h	–	–	–	–	1.57
[19], 48 h	–	–	–	–	3.25
[19], 72 h	–	–	–	–	3.45
[20], 0.3 µM	–	102	–	–	–
[20], 3 µM	–	113	–	–	–
[20], 10 µM	–	110	–	–	–
[20], 30 µM	–	102	–	–	–

Details	drug sensitivity score	relative viability EC50 [µM]
[6]	–	> 10
[7]	–	3.84
[8]	–	2.02
[9]	–	2.8
[10]	–	> 10
[14]	1.5	–
[15]	2.2	–
[16]	7.1	–
[17]	3.4	–
[18]	0	–

drug-induced phospholipidosis [%], [12]
Details	0.3 µM	0.833333 µM	3.33333 µM	6.66667 µM	10 µM	30 µM
24 h	2.02	14.1	52.7	74.9	75.2	51.7
48 h	8.07	8.41	50.9	81.7	87.7	–
72 h	3.83	3.63	41.9	82	85.5	–

COc1cc2ncnc(Nc3cccc(Br)c3)c2cc1OC
Details	SARS-CoV-2 infection rate, [13] [%]	cell count, [20] [%]	cell viability, [1] [%]	cell viability, [2] [%]	cell viability, [3] [%]	cell viability, [4] [%]	cell viability, [5] [%]	morphology score, [11]
1 nM	–	–	93.7	103	102	88.5	101	–
10 nM	–	–	98.4	86.4	84.4	109	84.6	–
100 nM	–	–	97.6	92.6	96.5	95.1	102	–
0.3 µM	107	87	–	–	–	–	–	-0.21
1000 nM	–	–	93.2	92.1	40.4	69.6	79.7	–
3 µM	86	105	–	–	–	–	–	0.38
10000 nM	–	–	72.9	71.6	23.6	47.2	49.6	–
10 µM	33	92	–	–	–	–	–	0.64
30 µM	64	29	–	–	–	–	–	-0.06

Details	drug sensitivity score	relative viability EC50 [µM]
[8]	–	0.497
[9]	–	0.774
[10]	–	1.17
[14]	2.1	–
[15]	2.1	–
[16]	11.7	–
[17]	6.4	–
[18]	5.4	–

drug-induced phospholipidosis [%], [12]
Details	0.3 µM	0.833333 µM	3.33333 µM	6.66667 µM	10 µM	30 µM
24 h	1.6	-1.36	0.82	3.17	1.18	9.67
48 h	-2.83	-1.17	-1.23	-4.71	-0.44	–
72 h	2.41	-2.62	-2.62	-1.43	0.652	–

O=C(NCCCN1CCC2(CC1)OCc1ccccc12)[C@H]1CCCN1Cc1ccccc1 [BAN-ORL-24]
Details	SARS-CoV-2 infection rate [%]	cell count [%]	cell viability [%]	morphology score	phospholipidosis EC50 [µM]
[1], 1 nM	–	–	105	–	–
[1], 10 nM	–	–	105	–	–
[1], 100 nM	–	–	104	–	–
[1], 1000 nM	–	–	104	–	–
[1], 10000 nM	–	–	99.2	–	–
[2], 1 nM	–	–	97.5	–	–
[2], 10 nM	–	–	109	–	–
[2], 100 nM	–	–	103	–	–
[2], 1000 nM	–	–	98.7	–	–
[2], 10000 nM	–	–	89.2	–	–
[3], 1 nM	–	–	104	–	–
[3], 10 nM	–	–	108	–	–
[3], 100 nM	–	–	114	–	–
[3], 1000 nM	–	–	105	–	–
[3], 10000 nM	–	–	87.1	–	–
[4], 1 nM	–	–	98.3	–	–
[4], 10 nM	–	–	103	–	–
[4], 100 nM	–	–	101	–	–
[4], 1000 nM	–	–	105	–	–
[4], 10000 nM	–	–	92.1	–	–
[5], 1 nM	–	–	94.8	–	–
[5], 10 nM	–	–	95.8	–	–
[5], 100 nM	–	–	91.6	–	–
[5], 1000 nM	–	–	93.2	–	–
[5], 10000 nM	–	–	99.5	–	–
[11], 0.3 µM	–	–	–	-0.05	–
[11], 3 µM	–	–	–	0.69	–
[11], 10 µM	–	–	–	0.81	–
[11], 30 µM	–	–	–	0.69	–
[13], 0.3 µM	98	–	–	–	–
[13], 3 µM	59	–	–	–	–
[13], 10 µM	33	–	–	–	–
[13], 30 µM	18	–	–	–	–
[19], 24 h	–	–	–	–	9.61
[19], 48 h	–	–	–	–	9.12
[19], 72 h	–	–	–	–	15
[20], 0.3 µM	–	98	–	–	–
[20], 3 µM	–	117	–	–	–
[20], 10 µM	–	117	–	–	–
[20], 30 µM	–	123	–	–	–

Details	drug sensitivity score	relative viability EC50 [µM]
[6]	–	> 10
[7]	–	> 10
[8]	–	> 10
[9]	–	> 10
[10]	–	> 10
[14]	0	–
[15]	0	–
[16]	0	–
[17]	0	–
[18]	0	–

drug-induced phospholipidosis [%], [12]
Details	0.3 µM	0.833333 µM	3.33333 µM	6.66667 µM	10 µM	30 µM
24 h	0.49	5.2	25.6	45.9	72.6	109
48 h	2.06	7.81	23.6	36.2	59.3	110
72 h	5.31	9.96	24.4	35	56.6	125

CC1=C(C(=O)OC2CCCCC2)C(c2ccc([N+](=O)[O-])cc2)C2=C(CC(C)(C)CC2=O)N1 (stereo not given) [FLI-06]
Details	SARS-CoV-2 infection rate, [13] [%]	cell count, [20] [%]	cell viability, [1] [%]	cell viability, [2] [%]	cell viability, [3] [%]	cell viability, [4] [%]	cell viability, [5] [%]	morphology score, [11]
1 nM	–	–	101	98.5	104	102	94.2	–
10 nM	–	–	100	102	106	101	92.2	–
100 nM	–	–	98.7	101	92.3	100	96.6	–
0.1 µM	111	99	–	–	–	–	–	-0.06
0.3 µM	100	104	–	–	–	–	–	-0.11
1000 nM	–	–	100	108	106	98	103	–
1 µM	101	99	–	–	–	–	–	0.02
3 µM	51	101	–	–	–	–	–	0.52
10000 nM	–	–	9.6	38.8	21.8	19.1	14.2	–

Details	drug sensitivity score	relative viability EC50 [µM]
[6]	–	3.16
[7]	–	3.72
[8]	–	3.53
[9]	–	2.99
[10]	–	3.36
[14]	5.1	–
[15]	2.8	–
[16]	3.9	–
[17]	4.7	–
[18]	4.5	–

drug-induced phospholipidosis [%], [12]
Details	0.3 µM	0.833333 µM	3.33333 µM	6.66667 µM	10 µM	30 µM
24 h	-0.85	2.59	9.31	10.3	4.47	3.32
48 h	3.76	2.95	-2.25	-3.67	–	–
72 h	4.47	2.39	-2.58	–	–	–
